{
  "source": "patent US10124030B2",
  "about": "“Skincare preparations” (KARYNG, LLC, priority 2016, dated 2018)",
  "origin": "cited, not measured here",
  "test_system": "epidermal SIRT1 protein expression",
  "conditions": "0.02% vs untreated with UVB; UVB 0.2 J/cm^2",
  "data": [
    {"smiles": "Oc1ccc(C=Cc2cc(O)cc(O)c2)cc1", "note": "[Resveratrol]", "values": [
      {"measurement": "modulation of epidermal SIRT1 protein expression", "value": "−22", "unit": "%"}
    ]}
  ]
}
